These results are taken from the NIST ThermoML archive (doi:10.1021/je8004112).

± gives the expanded uncertainty stated by the source.

For this data set the following is noted: Ring tensiometer.

For orientation: surface tension liquid-gas means the work needed to enlarge the surface of a liquid by unit area. Turning to `CCCCCCCCC` [nonane], the surface tension liquid-gas runs as follows: (293.15 K) 23.04 ± 0.37 mN/m; (298.15 K) 22.49 ± 0.36 mN/m; (303.15 K) 22.04 ± 0.35 mN/m; (308.15 K) 21.49 ± 0.35 mN/m; (313.15 K) 20.94 ± 0.34 mN/m; (318.15 K) 20.47 ± 0.33 mN/m. Besides, the surface tension liquid-gas (323.15 K) was found to be 19.98 ± 0.33 mN/m.

With `OC1CCCCC1` [cyclohexanol], the surface tension liquid-gas is recorded as 33.15 ± 0.49 mN/m (293.15 K); 32.74 ± 0.49 mN/m (298.15 K); 32.35 ± 0.48 mN/m (303.15 K); 31.91 ± 0.48 mN/m (308.15 K); 31.58 ± 0.47 mN/m (313.15 K); 31.13 ± 0.47 mN/m (318.15 K). Further, the surface tension liquid-gas (323.15 K) came to 30.78 ± 0.46 mN/m.

As for `CCCCCCCCCCCC` [dodecane], the surface tension liquid-gas is reported as 24.28 ± 0.38 mN/m (293.15 K); 23.84 ± 0.38 mN/m (298.15 K); 23.38 ± 0.37 mN/m (303.15 K); 22.98 ± 0.36 mN/m (308.15 K); 22.56 ± 0.36 mN/m (313.15 K); 22.14 ± 0.35 mN/m (318.15 K). Moreover, the surface tension liquid-gas (323.15 K) is reported as 21.71 ± 0.35 mN/m.
